Where a name gives a salt, the structure may show the parent alone.
How the values were obtained:
full-length human RORγt = full-length human RORγt (Homo sapiens (Human), UniProt P51449); assay: RORγt (full-length human) reporter assay, conditions A or B, HEK293T cells; assay type: cell-based; conditions: for inhibition at 3 µM / inhibition at 1 µM / inhibition at […] / inhibition at 2 µM: HEK-293T, read-out: RORγt (FL) Reporter Assay A or B, % inhibition; for inhibition at 3 µM: 3 μM compound concentration (footnote *); for IC50: RORγt (FL) Reporter Assay A or B, IC50, HEK293T cells; for inhibition at 1 µM: 1 μM compound concentration (footnote ***); for inhibition at […]: 0.33 μM compound concentration (footnote *****); for inhibition at 2 µM: 2 μM compound concentration
Method in brief: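 After 16–20 h, dual firefly/Renilla luciferase luminescence was read. Firefly signal was normalized to DMSO and saturating reference compound, then to Renilla, and fitted for IC50; % inhibition is versus DMSO.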

[1] = target: human RORγt ligand binding domain (RORγt LBD) (Homo sapiens (Human), UniProt P51449); assay: RORγt ThermoFluor® assay (thermal shift binding); conditions: ThermoFluor® Assay, Kd
Description: This approach is applicable to a wide variety of systems, and rigorous in theoretical interpretation through quantitation of equilibrium binding constants (KD).
The shift in the melting point described as a ΔTm is proportional to the concentration and affinity of the ligand.
RORγt ThermoFluor® Assay Construct
Reference wells contained RORγt without compounds, and the assay conditions were as follows: • 0.065 mg/mL RORγt • 60 μM 1,8-ANS • 100 mM Hepes, pH 7.0 • 10 mM NaCl • 2.5 mM GSH • 0.002% Tween-20
Project compounds were arranged in a pre-dosed mother plate (Greiner Bio-one) wherein compounds are serially diluted in 100% DMSO by 1:2 from a high concentration of 10 mM over 12 columns within a series (column 12 is a reference well containing DMSO, no compound). The compounds were robotically dispensed directly into assay plates (1×=46 nL) using a Hummingbird capillary liquid handling instrument (Digilab). Following compound dispense, protein and dye in buffer was added to achieve the final assay volume of 3 μL, followed by 1 μL of silicone oil.

full-length human RORγt, sequence (P51449 other isoform, or with tags, fused parts or gaps): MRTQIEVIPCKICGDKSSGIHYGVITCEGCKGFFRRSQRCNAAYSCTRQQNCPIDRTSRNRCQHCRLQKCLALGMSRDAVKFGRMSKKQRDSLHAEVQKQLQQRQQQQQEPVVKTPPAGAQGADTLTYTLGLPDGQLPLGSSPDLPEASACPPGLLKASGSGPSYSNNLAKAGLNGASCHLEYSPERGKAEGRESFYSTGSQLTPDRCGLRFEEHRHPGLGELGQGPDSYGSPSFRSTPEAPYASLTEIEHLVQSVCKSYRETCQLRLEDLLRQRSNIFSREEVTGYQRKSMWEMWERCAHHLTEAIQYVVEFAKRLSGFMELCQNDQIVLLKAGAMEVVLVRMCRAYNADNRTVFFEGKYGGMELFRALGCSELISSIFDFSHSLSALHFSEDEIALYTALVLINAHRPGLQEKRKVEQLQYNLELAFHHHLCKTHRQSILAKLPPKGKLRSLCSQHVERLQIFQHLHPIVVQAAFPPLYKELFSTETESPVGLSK
human RORγt ligand binding domain (RORγt LBD), sequence (P51449 other isoform, or with tags, fused parts or gaps): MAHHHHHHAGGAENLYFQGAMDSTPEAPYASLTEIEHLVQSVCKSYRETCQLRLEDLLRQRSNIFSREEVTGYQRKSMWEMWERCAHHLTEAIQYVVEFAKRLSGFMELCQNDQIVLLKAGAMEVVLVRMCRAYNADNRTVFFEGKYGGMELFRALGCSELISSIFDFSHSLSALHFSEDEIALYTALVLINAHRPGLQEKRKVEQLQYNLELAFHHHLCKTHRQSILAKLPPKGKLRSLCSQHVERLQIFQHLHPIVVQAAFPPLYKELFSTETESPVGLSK

Row | SMILES | inhibition at 3 µM (full-length human RORγt) [%] | IC50 (full-length human RORγt) [nM] | Kd [1] [nM] | inhibition at 1 µM (full-length human RORγt) [%] | inhibition at […] (full-length human RORγt) [%] | inhibition at 2 µM (full-length human RORγt) [%]
1 | CCn1nc(C(=O)NC[C@]2(O)CC[C@@H](S(C)(=O)=O)CC2)c(Cl)c1-c1ccc(C2(O)CCC(C(F)(F)F)CC2)cc1OC(F)F (single isomer, unassigned) [Example 112, 4-Chloro-5-(2-(difluoromethoxy)-4-((1s*,4s*)-1-hydroxy-4-(trifluoromethyl)cyclohexyl)phenyl)-1-ethyl-N-(((1s,4s)-1-hydroxy-4-(methylsulfonyl)cyclohexyl)methyl)-1H-pyrazole-3-carboxamide] | – | > 1000 | 3000 | 44 | – | –
2 | CCn1nc(C(=O)NC[C@]2(O)CC[C@@H](S(C)(=O)=O)CC2)c(Cl)c1-c1ccc(C2(O)CCC(C(F)(F)F)CC2)cc1OC(F)F (single isomer, unassigned) [Example 113, 4-Chloro-5-(2-(difluoromethoxy)-4-((1r*,4r*)-1-hydroxy-4-(trifluoromethyl)cyclohexyl)phenyl)-1-ethyl-N-(((1s,4s)-1-hydroxy-4-(methylsulfonyl)cyclohexyl)methyl)-1H-pyrazole-3-carboxamide] | 88 | 61 | 120 | – | – | –
3 | CCn1nc(C(=O)NC[C@H]2CC[C@H](S(C)(=O)=O)CC2)c(Cl)c1-c1ccc(C2(O)CCC(C(F)(F)F)CC2)cc1OC(F)F (single isomer, unassigned) [Example 114, 4-Chloro-5-(2-(difluoromethoxy)-4-((1s*,4s*)-1-hydroxy-4-(trifluoromethyl)cyclohexyl)phenyl)-1-ethyl-N-(((1r,4r)-4-(methylsulfonyl)cyclohexyl)methyl)-1H-pyrazole-3-carboxamide] | – | 410 | 980 | 82 | – | –
4 | CCn1nc(C(=O)NC[C@H]2CC[C@H](S(C)(=O)=O)CC2)c(Cl)c1-c1ccc(C2(O)CCC(C(F)(F)F)CC2)cc1OC(F)F (single isomer, unassigned) [Example 115, 4-Chloro-5-(2-(difluoromethoxy)-4-((1r*,4r*)-1-hydroxy-4-(trifluoromethyl)cyclohexyl)phenyl)-1-ethyl-N-(((1r,4r)-4-(methylsulfonyl)cyclohexyl)methyl)-1H-pyrazole-3-carboxamide] | 89 | 16 | 32 | – | – | –
5 | CCn1nc(C(=O)NC[C@H]2CC[C@H](S(N)(=O)=O)CC2)c(Cl)c1-c1ccc(C[C@@H](C)C(F)(F)F)cc1OC(F)F (single isomer, unassigned) [Example 139, 4-Chloro-5-(2-(difluoromethoxy)-4-((R*)-3,3,3-trifluoro-2-methylpropyl)phenyl)-1-ethyl-N-(((1r,4R)-4-sulfamoylcyclohexyl)methyl)-1H-pyrazole-3-carboxamide] | – | 2.7 | 0.58 | 122 | – | –
6 | CCn1nc(C(=O)NC[C@]2(O)CC[C@@H](S(C)(=O)=O)C[C@H]2N)c(Cl)c1-c1ccc(CC(C)(C)C(F)(F)F)cc1OC(F)F (stereo in doubt) [Example 5, N-(((1RS,2RS,4RS)-2-Amino-1-hydroxy-4-(methylsulfonyl)cyclohexyl)methyl)-4-chloro-5-(2-(difluoromethoxy)-4-(3,3,3-trifluoro-2,2-dimethylpropyl)phenyl)-1-ethyl-1H-pyrazole-3-carboxamide Hydrobromide] | 103 | 120 | 1.7 | – | – | –
7 | CCn1nc(C(=O)NC[C@@]2(O)CC[C@H](S(C)(=O)=O)C[C@@H]2N)c(Cl)c1-c1ccc(CC(C)(C)C(F)(F)F)cc1OC(F)F (stereo in doubt) [Example 7, N-(((1S*,2S*,4S*)-2-Amino-1-hydroxy-4-(methylsulfonyl)cyclohexyl)methyl)-4-chloro-5-(2-(difluoromethoxy)-4-(3,3,3-trifluoro-2,2-dimethylpropyl)phenyl)-1-ethyl-1H-pyrazole-3-carboxamide hydrobromide] | – | 68 | 2.1 | 103 | – | –

Results, then the molecule that gave them:

Row | inhibition at 3 µM (full-length human RORγt) [%] | IC50 (full-length human RORγt) [nM] | Kd [1] [nM] | inhibition at 1 µM (full-length human RORγt) [%] | inhibition at […] (full-length human RORγt) [%] | inhibition at 2 µM (full-length human RORγt) [%] | SMILES
8 | 114 | 38 | 1.9 | – | – | – | CCn1nc(C(=O)NC[C@]2(O)CC[C@@H](S(N)(=O)=O)CC2)c(Cl)c1-c1ccc(C[C@H](C)C(F)(F)F)cc1OC(F)F (single isomer, unassigned) [Example 60, 4-Chloro-5-(2-(difluoromethoxy)-4-((S*)-3,3,3-trifluoro-2-methylpropyl)phenyl)-1-ethyl-N-(((1s,4R)-1-hydroxy-4-sulfamoylcyclohexyl)methyl)-1H-pyrazole-3-carboxamide]
9 | – | 68 | 6.5 | 130 | – | – | CCn1nc(C(=O)NC[C@]2(O)CC[C@@H](S(N)(=O)=O)CC2)c(C)c1-c1ccc(C[C@H](C)C(F)(F)F)cc1OC(F)F (single isomer, unassigned) [Example 61, 5-(2-(difluoromethoxy)-4-((S*)-3,3,3-trifluoro-2-methylpropyl)phenyl)-1-ethyl-N-(((1s,4R)-1-hydroxy-4-sulfamoylcyclohexyl)methyl)-4-methyl-1H-pyrazole-3-carboxamide]
10 | -21 | 2600 | 230 | – | – | – | CCn1nc(C(=O)NC[C@]2(O)CC[C@@H](S(C)(=O)=O)CC2)c(Cl)c1-c1ccc([C@@](C)(O)CC(F)(F)F)cc1OC(F)F (single isomer, unassigned) [Example 99, 4-Chloro-5-(2-(difluoromethoxy)-4-((S*)-4,4,4-trifluoro-2-hydroxybutan-2-yl)phenyl)-1-ethyl-N-(((1s,4R)-1-hydroxy-4-(methylsulfonyl)cyclohexyl)methyl)-1H-pyrazole-3-carboxamide]
11 | 49 | 220 | 69 | – | – | – | CCn1nc(C(=O)NC[C@]2(O)CC[C@@H](S(C)(=O)=O)CC2)c(Cl)c1-c1ccc([C@](C)(O)CC(F)(F)F)cc1OC(F)F (single isomer, unassigned) [Example 100, 4-Chloro-5-(2-(difluoromethoxy)-4-((R*)-4,4,4-trifluoro-2-hydroxybutan-2-yl)phenyl)-1-ethyl-N-(((1s,4S)-1-hydroxy-4-(methylsulfonyl)cyclohexyl)methyl)-1H-pyrazole-3-carboxamide]
12 | – | 11 | 0.46 | – | 83 | – | CCn1nc(C(=O)NC[C@H]2CC[C@H](S(C)(=O)=O)CC2)c(Cl)c1-c1ccc(C[C@@H](C)C(F)(F)F)cc1OC(F)F (single isomer, unassigned) [Example 135, 4-Chloro-5-(2-(difluoromethoxy)-4-((R*)-3,3,3-trifluoro-2-methylpropyl)phenyl)-1-ethyl-N-(((1r,4R)-4-(methylsulfonyl)cyclohexyl)methyl)-1H-pyrazole-3-carboxamide]
13 | – | 3.6 | 1.1 | – | 89 | – | CCn1nc(C(=O)NC[C@]2(O)CC[C@@H](S(C)(=O)=O)CC2)c(Cl)c1-c1ccc(C[C@@H](C)C(F)(F)F)cc1OC(F)F (single isomer, unassigned) [Example 136, 4-Chloro-5-(2-(difluoromethoxy)-4-((R*)-3,3,3-trifluoro-2-methylpropyl)phenyl)-1-ethyl-N-(((1s,4S)-1-hydroxy-4-(methylsulfonyl)cyclohexyl)methyl)-1H-pyrazole-3-carboxamide]
14 | – | 37 | 7.9 | – | 72 | – | C[C@H](Cc1ccc(-c2c(Cl)c(C(=O)NC[C@]3(O)CC[C@@H](S(C)(=O)=O)CC3)nn2C)c(OC(F)F)c1)C(F)(F)F (single isomer, unassigned) [Example 152, 4-Chloro-5-(2-(difluoromethoxy)-4-((R*)-3,3,3-trifluoro-2-methylpropyl)phenyl)-N-(((1s,4S)-1-hydroxy-4-(methylsulfonyl)cyclohexyl)methyl)-1-methyl-1H-pyrazole-3-carboxamide]
15 | – | 79 | 16 | – | – | 69 | CCn1nc(C(=O)NC[C@]2(O)CC[C@@H](S(C)(=O)=O)CC2)c(Cl)c1-c1c(F)cc(C[C@H](C)C(F)(F)F)cc1F (single isomer, unassigned) [Example 198, 4-Chloro-5-(2,6-difluoro-4-((S*)-3,3,3-trifluoro-2-methylpropyl)phenyl)-1-ethyl-N-(((1s,4R)-1-hydroxy-4-(methylsulfonyl)cyclohexyl)methyl)-1H-pyrazole-3-carboxamide]
16 | – | 58 | 14 | – | – | 75 | CCn1nc(C(=O)NC[C@]2(O)CC[C@@H](S(C)(=O)=O)CC2)c(Cl)c1-c1c(F)cc(C[C@@H](C)C(F)(F)F)cc1F (single isomer, unassigned) [Example 199, 4-Chloro-5-(2,6-difluoro-4-((R*)-3,3,3-trifluoro-2-methylpropyl)phenyl)-1-ethyl-N-(((1s,4S)-1-hydroxy-4-(methylsulfonyl)cyclohexyl)methyl)-1H-pyrazole-3-carboxamide]
